We go through one compound from patent US5565425A, “Viral infection and proliferation inhibitors” (Snow Brand Milk Products Co., Ltd, priority 1993, dated 1996).

Bridge positions count the residues as written; N and C are the ends. Peptide text beside a SMILES is read from it.

In experiment [1] the test system is influenza virus A/PR/8/34. Conditions: 100 μl of one mg/ml solution in allantoic cavity three hours before virus; average of five eggs.
The subject of experiment [2] is mouse cytomegalo virus (mouse CMV). The experiment is described as follows: Infection protective test against mouse CMV by the time of administration. It counts as in vivo. The conditions noted are these: mice, 0.10 g/kg i.p., after 10 days. Here is the method: (Method) Male Balbc/AJcl mice, 4-week-old (10 in one group) were used. The sample was dissolved in phosphate buffer saline solution (PBS) and intraperitoneally administered to mice. […] Timing of administrations of the sample was made 48, 24, six and one hr. before, immediately after, one and six hrs. after the administration.

Experiment [3] has as its system Human CMV (Tanaka strain). Put plainly: Inhibitory activity against human CMV infection and proliferation in HELF cells (fluorescence staining). It counts as cell-based, Human cytomegalo virus. How it is done:
(Method) LF derived peptide was dissolved in 2% serum added MEM medium to give five mg/ml solution, filtered and sterilized to make a stock solution. The stock solution was diluted with 2% serum added MEM medium on use. Samples containing human embryo lung fibroblast cells (HELF cells) were suspended in 2% serum added MEM medium and incubated for 10 minutes. The cells were collected by centrifugation, washed twice with 2% serum added MEM medium and suspended in 2% serum added MEM medium. Human cytomegalo virus [Human CMV (Tanaka strain)] was added, incubated for 24 hrs., fluorescence stained with human CMV positive serum and the adsorption rate of human CMV to the cells was determined.
The results are judged from the numbers of fluorescent stained cells per one cover slip.

The subject of experiment [4] is mouse cytomegalo virus (mouse CMV). The experiment is described as follows: In vivo inhibitory activity against mouse CMV infection (survival of mice). Conditions: after 10 days. Here is the method: (Method) Male Balbc/AJcl mice, 4-week-old (10 in one group) were used. The sample was dissolved in phosphate buffer saline solution (PBS) and intraperitoneally administered to mice.

For another experiment, the system named is HIV (HTLV-IIIB). Put plainly: Inhibitory activity against HIV infection and proliferation in MT-4 cells (indirect fluorescence antibody method). It counts as cell-based, human immunodeficiency virus (HIV). Conditions: three days, positive control 26.0%. How it is done: (Method) Cultured supernatant of MOLT-4/HTLV-IIIB cells, a HTLV-IIIB persistent infected strain of HIV, was used as a viral solution. The supernatant was kept at -80° C. Human T cell line MT-4 was used for the test. MT-4 was subcultured in RPMI 1640 medium containing 10% fetal calf serum (FCS). Sample, LF derived peptide, was dissolved in RPMI 1640 medium and one ml of the diluted solution at various concentrations was added to the cells. The inoculated MT-4 test sample was incubated for 60 minutes and infected with HIV at a concentration of moi […]=0.01 and one ml of the cell solution adjusted at a cell density of 3×10^5 cells/ml was added. The cells were cultured for three days : and HIV infected cells were determined with an indirect fluorescence antibody method.
HIV infected cells were determined by the indirect fluorescence antibody method using HIV infected patient serum as a primary antibody. […] HIV infected MT-4 cells cultured without addition of the sample was used as a positive control and cells without addition of viral solution was cultured to make a negative control group.

For the compound `CC[C@H](C)[C@H](NC(=O)[C@@H]1CSSC[C@H](NC(=O)[C@H](CCCCN)NC(=O)[C@@H](N)[C@@H](C)O)C(=O)N[C@@H](Cc2ccccc2)C(=O)N[C@@H](CCC(N)=O)C(=O)N[C@@H](Cc2c[nH]c3ccccc23)C(=O)N[C@@H](CCC(N)=O)C(=O)N[C@@H](CCCNC(=N)N)C(=O)N[C@@H](CC(N)=O)C(=O)N[C@@H](CCSC)C(=O)N[C@@H](CCCNC(=N)N)C(=O)N[C@@H](CCCCN)C(=O)N[C@@H](C(C)C)C(=O)N[C@@H](CCCNC(=N)N)C(=O)NCC(=O)N2CCC[C@H]2C(=O)N2CCC[C@H]2C(=O)N[C@@H](C(C)C)C(=O)N[C@@H](CO)C(=O)N1)C(=O)N[C@@H](CCCCN)C(=O)N[C@@H](CCCNC(=N)N)C(=O)N[C@@H](CC(=O)O)C(=O)N[C@@H](CO)C(=O)O` [Human LF (18-42)] (H-TKCFQWQRNMRKVRGPPVSCIKRDS-OH; disulfide 3-20), the “Inhibitory rate of infection and proliferation of influenza virus” value in experiment [1] came out at 96.9%. For the same compound, the Survival rate worked out at 100% in experiment [2] (time of administration 0 hrs.); 100% in experiment [2] (time of administration +1 hrs.); 60% in experiment [2] (time of administration +6 hrs.); 100% in experiment [2] (time of administration -1 hrs.); 100% in experiment [2] (time of administration -6 hrs.); 100% in experiment [2] (time of administration -24 hrs.). Besides, the Survival rate in experiment [2] (time of administration -48 hrs.) is on record as 60%; in experiment [4] (0.02 g/kg of body weight i.p. 24 hrs. before mouse CMV), 20%; in experiment [4] (0.05 g/kg of body weight i.p. 24 hrs. before mouse CMV) it was 50%; in experiment [4] (0.10 g/kg of body weight i.p. 24 hrs. before mouse CMV) it was 100%; in experiment [4] (0.50 g/kg of body weight i.p. 24 hrs. before mouse CMV), 100%. The “Inhibitory rate of human CMV infection” value in experiment [3] (24 hrs., concentration not given) is reported as 95.7%. For the same compound, the “Inhibitory rate (human CMV infection and proliferation)” value in experiment [3] (concentration 0.04 mg/ml) was found to be 14.7%; in experiment [3] (concentration 0.1 mg/ml), 34.9%; in experiment [3] (concentration 0.2 mg/ml), 45.0%; in experiment [3] (concentration 0.4 mg/ml), 51.9%; in experiment [3] (concentration 1.0 mg/ml) it was 86.0%; in experiment [3] (concentration 2.0 mg/ml), 96.1%. Moreover, the “ratio of stained (HIV infected) cells” value in the experiment with HIV (HTLV-IIIB) (sample 63 μg/ml) amounted to 17%; in the experiment on HIV (HTLV-IIIB) (sample 125 μg/ml) it was 8.8%; with HIV (HTLV-IIIB) (sample 250 μg/ml), 6.7%; in the experiment with HIV (HTLV-IIIB) (sample 500 μg/ml), 2.9%; in the experiment with HIV (HTLV-IIIB) (sample 1,000 μg/ml), 1.1%.
